Assay results taken from patent publication US8791130B2, “Aminopyrimidine derivatives as LRRK2 modulators” (Genentech, Inc., priority 2011, dated 2014).

Each compound was assayed against LRRK2 (Homo sapiens (Human), UniProt Q5S007, G2019S) (assay: In Vitro LRRK2 LabChip Assay (LRRK2 Ki)).
LRRK2, sequence (Q5S007 970-2527 G2019S): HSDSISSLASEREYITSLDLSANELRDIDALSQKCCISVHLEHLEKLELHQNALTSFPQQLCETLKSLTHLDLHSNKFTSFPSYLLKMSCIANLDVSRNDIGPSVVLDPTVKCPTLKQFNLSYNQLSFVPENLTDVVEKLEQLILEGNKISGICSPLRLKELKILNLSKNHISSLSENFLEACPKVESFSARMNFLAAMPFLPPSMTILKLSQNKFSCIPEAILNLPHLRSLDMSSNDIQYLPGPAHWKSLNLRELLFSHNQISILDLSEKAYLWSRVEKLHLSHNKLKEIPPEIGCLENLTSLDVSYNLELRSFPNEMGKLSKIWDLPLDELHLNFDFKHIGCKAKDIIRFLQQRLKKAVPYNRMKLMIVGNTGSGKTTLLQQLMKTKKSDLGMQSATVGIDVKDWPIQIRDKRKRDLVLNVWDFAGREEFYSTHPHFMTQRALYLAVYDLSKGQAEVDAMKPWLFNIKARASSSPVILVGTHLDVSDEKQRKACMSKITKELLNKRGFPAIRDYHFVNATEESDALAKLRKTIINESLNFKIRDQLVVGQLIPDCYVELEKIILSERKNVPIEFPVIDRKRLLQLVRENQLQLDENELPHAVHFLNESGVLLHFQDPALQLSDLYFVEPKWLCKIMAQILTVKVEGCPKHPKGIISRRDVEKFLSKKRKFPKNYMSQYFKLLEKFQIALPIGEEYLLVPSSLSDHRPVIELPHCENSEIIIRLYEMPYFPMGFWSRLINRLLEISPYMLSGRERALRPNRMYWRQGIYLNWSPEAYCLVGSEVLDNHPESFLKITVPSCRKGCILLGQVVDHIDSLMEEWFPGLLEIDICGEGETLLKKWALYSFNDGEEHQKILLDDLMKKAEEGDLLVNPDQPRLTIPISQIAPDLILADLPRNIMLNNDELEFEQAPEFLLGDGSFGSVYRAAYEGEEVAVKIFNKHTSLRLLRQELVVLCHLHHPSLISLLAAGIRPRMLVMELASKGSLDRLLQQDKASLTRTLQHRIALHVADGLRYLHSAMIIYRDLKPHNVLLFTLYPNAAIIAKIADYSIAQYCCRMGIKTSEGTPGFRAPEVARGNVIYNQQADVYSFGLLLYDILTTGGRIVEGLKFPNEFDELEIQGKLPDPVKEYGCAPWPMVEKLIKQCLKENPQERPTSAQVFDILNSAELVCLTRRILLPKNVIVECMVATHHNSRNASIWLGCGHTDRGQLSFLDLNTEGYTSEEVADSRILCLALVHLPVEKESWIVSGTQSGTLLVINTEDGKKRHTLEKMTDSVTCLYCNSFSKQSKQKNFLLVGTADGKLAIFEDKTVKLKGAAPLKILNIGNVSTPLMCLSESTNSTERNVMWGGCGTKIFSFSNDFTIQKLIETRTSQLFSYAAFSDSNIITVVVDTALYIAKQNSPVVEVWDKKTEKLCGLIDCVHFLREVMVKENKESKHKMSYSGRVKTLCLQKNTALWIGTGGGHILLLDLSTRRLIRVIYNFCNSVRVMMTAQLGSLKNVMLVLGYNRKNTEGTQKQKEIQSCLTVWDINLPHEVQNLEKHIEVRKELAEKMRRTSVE
Assay type: biochemical
Procedure: In Vitro LRRK2 LabChip Assay This assay was used to determine a compound's potency in inhibiting activity of LRRK2 by determining, Kiapp, IC50, or percent inhibition values. In a polypropylene plate, LRRK2, fluorescently-labeled peptide substrate, ATP and test compound were incubated together. Using a LabChip 3000 (Caliper Life Sciences), after the reaction the substrate was separated by capillary electrophoresis into two populations: phosphorylated and unphosphorylated. The relative amounts of each were quantitated by fluorescence intensity. LRRK2 Ki was determined according to the equation: […]))). Ki values in Table 4 and elsewhere herein are shown in μM. […] Substrate: 5[…] Non-binding plate: 384 well clear V-bottom polypropylene plates (Greiner cat #781280). ATP: 10 mM ATP (Cell Signaling cat #9804). Triton X-100: Triton X-100. Brij-35: Brij-35 (Pierce cat #20150). […] DMSO: DMSO (Sigma cat #34869-100 ML). […] Compound Plate Preparation: For serial dilutions, 34.6 μl DMSO was added to columns 3-24. For the assay controls, 37.5 μl DMSO was added to columns 1 and 2 of rows A and […]-028831 (Staurosporine) was added to columns 1 and 2, row B. […] A Precision instrument was used to perform 1:3.16 serial dilutions (“PLK_BM_serial_halflog”). ATP Preparation: ATP was diluted to 282.1 μM in Complete Kinase Buffer (final concentration was 130 μM). […] Assay Procedure: To a 50 μl polypropylene plate, 5 μl/well buffer/substrate was added by hand to Blank wells. A Biomek FX was used to start the kinase reaction (“PLK SAR 23 ATP”). […] 5 μl/well kinase/substrate in Assay Plate; The plate was incubated for 2 hours in the dark. Biomek FX was used to stop the kinase reaction (“PLK Stop”), and 10 μl/well Stop solution was added to the Assay Plate.
With `CNc1nc(Nc2ccc(-c3nnn(C)n3)cc2OC)ncc1C(F)(F)F` [Compound 18, N^2-(2-methoxy-4-(2-methyl-2H-tetrazol-5-yl)phenyl)-N^4-methyl-5-(trifluoromethyl) pyrimidine-2,4-diamine] the Ki was 10 nM. `CNc1nc(Nc2ccc(-n3cnnn3)cc2OC)ncc1C(F)(F)F` [Compound 27, N^2-(2-methoxy-4-(1H-tetrazol-1-yl)phenyl)-N^4-methyl-5-(trifluoromethyl) pyrimidine-2,4-diamine] was tested, and the Ki was 2 nM. For `CNc1nc(Nc2cc(OC)c(-c3nccn3C)cc2Cl)ncc1C(F)(F)F` [Compound 19, N^2-(2-chloro-5-methoxy-4-(1-methyl-1H-imidazol-2-yl)phenyl)-N^4-methyl-5-(trifluoromethyl) pyrimidine-2,4-diamine], the Ki was 3 nM. Work on `CNc1nc(Nc2cc(OC)c(-c3cnn(C)c3)cc2Cl)ncc1C(F)(F)F` [Compound 32, N^2-(2-chloro-5-methoxy-4-(1-methyl-1H-pyrazol-4-yl)phenyl)-N^4-methyl-5-(trifluoromethyl) pyrimidine-2,4-diamine] yielded a Ki of 11 nM. Work on `CNc1nc(Nc2ccc(-c3nccn3C)cc2OC)ncc1Cl` [Compound 15, 5-chloro-N^2-(2-methoxy-4-(1-methyl-1H-imidazol-2-yl)phenyl)-N^4-methylpyrimidine-2,4-diamine] yielded a Ki of 7 nM. For `CNc1nc(Nc2ccc(-c3nnnn3C)cc2OC)ncc1C(F)(F)F` [Compound 20, N^2-(2-methoxy-4-(1-methyl-1H-tetrazol-5-yl)phenyl)-N^4-methyl-5-(trifluoromethyl) pyrimidine-2,4-diamine], the Ki was 3 nM. `CNc1nc(Nc2ccc(-c3cncn3C)cc2OC)ncc1C(F)(F)F` [Compound 8] showed a Ki of 2 nM. `CNc1nc(Nc2cc(OC)c(-c3nnc(C)o3)cc2Cl)ncc1Cl` [Compound 37, 5-chloro-N^2-(2-chloro-5-methoxy-4-(5-methyl-1,3,4-oxadiazol-2-yl)phenyl)-N^4-methylpyrimidine-2,4-diamine] was tested, and the Ki was 12 nM. With `CNc1nc(Nc2ccc(-c3cnnn3C)cc2OC)ncc1C(F)(F)F` [Compound 17, N^2-(2-methoxy-4-(1-methyl-1H-1,2,3-triazol-5-yl)phenyl)-N^4-methyl-5-(trifluoromethyl) pyrimidine-2,4-diamine] the Ki was 2 nM. `CNc1nc(Nc2cc(F)c(-c3nnc(C)o3)cc2OC)ncc1C(F)(F)F` [Compound 30, N^2-(5-fluoro-2-methoxy-4-(5-methyl-1,3,4-oxadiazol-2-yl)phenyl)-N^4-methyl-5-(trifluoromethyl) pyrimidine-2,4-diamine] was tested, and the Ki was 12 nM. `CNc1nc(Nc2ccc(-n3nc(C)cc3COC)cc2OC)ncc1C(F)(F)F` [Compound 48, N2-(2-methoxy-4-(5-(methoxymethyl)-3-methyl-1H-pyrazol-1-yl)phenyl)-N4-methyl-5-(trifluoromethyl) pyrimidine-2,4-diamine] gave a Ki of 10 nM. For `CCNc1nc(Nc2cc(F)c(-c3nnc(C)o3)cc2OC)ncc1C(F)(F)F` [Compound 29, N^4-ethyl-N^2-(5-fluoro-2-methoxy-4-(5-methyl-1,3,4-oxadiazol-2-yl)phenyl)-5-(trifluoromethyl) pyrimidine-2,4-diamine], the Ki was 7 nM. Compound `CNc1nc(Nc2ccc(-c3cnn(C)c3C)cc2OC)ncc1C(F)(F)F` [Compound 39, N2-(4-(1,5-dimethyl-1H-pyrazol-4-yl)-2-methoxyphenyl)-N4-methyl-5-(trifluoromethyl) pyrimidine-2,4-diamine] has a Ki of 3 nM. Work on `CNc1nc(Nc2cc(OC)c(-c3nc(C)no3)cc2Cl)ncc1Cl` [Compound 36, 5-chloro-N^2-(2-chloro-5-methoxy-4-(3-methyl-1,2,4-oxadiazol-5-yl)phenyl)-N^4-methylpyrimidine-2,4-diamine] yielded a Ki of 44 nM. `CNc1nc(Nc2ccc(-c3cncn3C)cc2OC)ncc1Cl` [Compound 16, 5-chloro-N2-(2-methoxy-4-(1-methyl-1H-imidazol-5-yl)phenyl)-N4-methylpyrimidine-2,4-diamine] showed a Ki of 2 nM. `CNc1nc(Nc2ccc(-c3nnn[nH]3)cc2Cl)ncc1C(F)(F)F` [Compound 1, N2-(2-chloro-4-(2H-tetrazol-5-yl)phenyl)-N4-methyl-5-(trifluoromethyl) pyrimidine-2,4-diamine] was tested, and the Ki was 3 nM. `CNc1nc(Nc2ccc(-n3cncn3)cc2OC)ncc1C(F)(F)F` [Compound 4, N2-(2-methoxy-4-(1H-1,2,4-triazol-1-yl)phenyl)-N4-methyl-5-(trifluoromethyl) pyrimidine-2,4-diamine] gave a Ki of 3 nM. In the case of `CNc1nc(Nc2cc(OC)c(-c3ccnn3C)cc2Cl)ncc1C(F)(F)F` [Compound 28, N^2-(2-chloro-5-methoxy-4-(1-methyl-1H-pyrazol-5-yl)phenyl)-N^4-methyl-5-(trifluoromethyl) pyrimidine-2,4-diamine], the Ki is reported as 5 nM. With `CNc1nc(Nc2ccc(-c3cnnn3C)cc2OC)ncc1Cl` [Compound 23, 5-chloro-N^2-(2-methoxy-4-(1-methyl-1H-1,2,3-triazol-5-yl)phenyl)-N^4-methylpyrimidine-2,4-diamine] the Ki was 3 nM.
